Measurements published in PMC5061317, “Transactivation Assays to Assess Canine and Rodent Pregnane X Receptor (PXR) and Constitutive Androstane Receptor (CAR) Activation” (PLoS ONE, 2016).
Where “and” joins values, the source holds several entries; their conditions need not be identical. Equal values may be shown once. Where a name gives a salt, the structure may show the parent alone.

Assays:
rat PXR = target: T1, rat PXR (Rattus norvegicus, UniProt Q9R1A7); assay: Rat PXR transactivation assay (rPXR stable cell line, CYP3A4 luciferase reporter); conditions: 48 h
T1 sequence (Q9R1A7 1-431): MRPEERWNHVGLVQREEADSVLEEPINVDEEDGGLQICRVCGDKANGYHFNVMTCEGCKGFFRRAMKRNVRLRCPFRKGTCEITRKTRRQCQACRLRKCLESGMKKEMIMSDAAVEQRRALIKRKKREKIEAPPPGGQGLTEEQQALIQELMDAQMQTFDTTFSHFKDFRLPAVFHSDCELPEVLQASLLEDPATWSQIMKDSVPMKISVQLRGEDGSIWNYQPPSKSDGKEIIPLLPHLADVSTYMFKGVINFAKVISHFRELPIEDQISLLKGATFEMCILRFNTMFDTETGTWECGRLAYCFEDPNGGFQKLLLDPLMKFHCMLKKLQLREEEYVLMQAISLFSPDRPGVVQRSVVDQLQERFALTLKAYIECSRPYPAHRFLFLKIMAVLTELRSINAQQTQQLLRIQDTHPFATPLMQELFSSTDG
Experimental: Human hepatoma cell line, HepG2 was obtained from American Type Culture Collection (Rockville, MD) and maintained in DMEM supplemented with 10% FBS, 100 U/ml penicillin and 100 μg /ml streptomycin at 37°C, 5% CO2. The stable cell line, rPXR, harboring rat PXR and the CYP3A4 promoter and enhancer linked to luciferase was produced and maintained as described previously.
(§1) For luciferase reporter assays involving transient transfectants, either freshly transfected cells or cells that have been stored in liquid N2 were seeded in 96-well plates as described above. For the rPXR stable cell line, cells were seeded into a 96-well plate at a density of 2x10^4 cells/well. Following a 24 h recovery, transiently transfected cells or stably integrated rat PXR cells were treated with various chemicals dissolved in DMSO in triplicate wells. Phenobarbital was the only compound that was dissolved in sterile water. […] All treatments were performed for 48 h.
(§2) Assessment of cell viability and transcriptional activation was performed in the same wells using the CellTiter-Fluor cell viability assay and ONE-Glo Luciferase assay. Fluorescence was determined on a BioTek Synergy 2 Luminometer (BioTek Instruments, Winooski, VT) with excitation at 400 nm and emission at 510 nm. Following viability determination luminescence was monitored.
(§3) Fluorescent light units were utilized to normalize for viable cell number in the luciferase (transcriptional activation) assay and expressed as the average of three determinations/chemical agent and concentration. The average luminescent units were divided by the average for solvent control to determine the fold activation. Data is expressed as mean ± standard error (SE) of three separate experiments performed in triplicate. The data was further normalized by dividing the values for each chemical by values obtained from assays with empty expression vector control. One-way multiple comparison ANOVA test in concert with Uncorrected Fisher’s LSD posttest was used to compare treatment groups with the negative controls. The significance threshold was set at p < 0.01. All statistical analyses were performed using Prism V6.0c (GraphPad, San Diego, CA). To determine receptor activation kinetics for positive controls, EC50 and EMAX values were calculated using nonlinear regression analysis of typical log dose-response curves using Prism V6.0c (GraphPad, San Diego, CA).

rat CAR3 [1] = target: T2, rat CAR3 (Rattus norvegicus, UniProt Q9QUS1, INS280APYLT); assay: Rat CAR3 transactivation assay with CYP2B6 promoter/enhancer reporter (rCAR3/2B6); format: cell-based; conditions: 10 μM, 48 h, above DMSO treated cells, mean ± SE
T2 construct: expressed in transfected cells; host or cells: HepG2 (transient transfection)
T2 sequence (Q9QUS1 with tags, fused parts or gaps INS280APYLT): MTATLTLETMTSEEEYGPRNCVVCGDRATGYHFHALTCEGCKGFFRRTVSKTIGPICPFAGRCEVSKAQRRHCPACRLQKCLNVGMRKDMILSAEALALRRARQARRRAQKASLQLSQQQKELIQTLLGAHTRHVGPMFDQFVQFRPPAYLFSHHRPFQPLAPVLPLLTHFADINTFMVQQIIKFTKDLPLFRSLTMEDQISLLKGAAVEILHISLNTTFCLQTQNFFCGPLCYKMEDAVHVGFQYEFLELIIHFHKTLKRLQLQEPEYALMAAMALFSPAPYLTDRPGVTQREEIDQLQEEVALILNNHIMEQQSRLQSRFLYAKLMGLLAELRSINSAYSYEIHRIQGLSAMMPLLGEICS
T2 sequence (P19793 1-462 partner): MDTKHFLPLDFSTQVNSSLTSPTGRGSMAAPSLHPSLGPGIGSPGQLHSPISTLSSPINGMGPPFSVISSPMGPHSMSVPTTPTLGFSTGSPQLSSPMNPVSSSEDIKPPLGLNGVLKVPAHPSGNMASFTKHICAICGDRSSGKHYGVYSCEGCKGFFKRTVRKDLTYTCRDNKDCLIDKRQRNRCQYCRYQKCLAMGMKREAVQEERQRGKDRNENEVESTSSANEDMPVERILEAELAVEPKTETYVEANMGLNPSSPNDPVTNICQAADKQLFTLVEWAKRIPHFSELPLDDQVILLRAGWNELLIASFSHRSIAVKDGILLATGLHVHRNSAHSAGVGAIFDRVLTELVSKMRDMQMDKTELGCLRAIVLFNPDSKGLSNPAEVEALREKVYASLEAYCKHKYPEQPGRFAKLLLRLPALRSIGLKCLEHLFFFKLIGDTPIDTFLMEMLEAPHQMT
Experimental: (§4) To construct an expression vector harboring canine CAR3, reference CAR sequence (CAR1) for canine (Accession number: FJ202015) was amplified from C. familiaris liver cDNA. PCR conditions were 98°C for 2 min, 30 cycles of 98°C for 30 sec and 72°C for 1 min, followed by 72°C for 7 min and cooling to 4°C. The resulting PCR product was cloned into the pCR2.1 vector for sequence analysis and subsequently cloned into a pCDNA 3.1 expression vector (Life Technologies, Carlsbad, CA). […] Canine CAR1 was mutated to obtain CAR3 by introducing […] motif. This was performed using forward primer: 5’- […] -3’ and reverse primer: 5’- […] -3’ in concert with QuikChange Lightning mutagenesis kit (Agilent) according to manufacturer’s instructions. The presence of correct canine CAR3 was verified by sequence analysis. […]
as §2
(§5) Fluorescent light units were utilized to normalize for viable cell number in the luciferase (transcriptional activation) assay and expressed as the average of three determinations/chemical agent and concentration. […]

rat CAR3 [2] = target: T2, rat CAR3; assay: Rat CAR3 transactivation assay with CYP3A4 promoter/enhancer reporter (rCAR3/3A4); format: cell-based; conditions: 10 μM, 48 h, above DMSO treated cells, mean ± SE
Experimental: as §4, §2, §5

canine CAR3 = canine CAR3 (Canis lupus familiaris, UniProt B6E443, INS263APYLT); conditions: 10 μM, 48 h, above DMSO treated cells, mean ± SE
Experimental: To construct an expression vector harboring canine CAR3, reference CAR sequence (CAR1) for canine (Accession number: FJ202015) was amplified from C. familiaris liver cDNA. PCR conditions were 98°C for 2 min, 30 cycles of 98°C for 30 sec and 72°C for 1 min, followed by 72°C for 7 min and cooling to 4°C. The resulting PCR product was cloned into the pCR2.1 vector for sequence analysis and subsequently cloned into a pCDNA 3.1 expression vector (Life Technologies, Carlsbad, CA). […] Canine CAR1 was mutated to obtain CAR3 by introducing […] motif. This was performed using forward primer: 5’- […] -3’ and reverse primer: 5’- […] -3’ in concert with QuikChange Lightning mutagenesis kit (Agilent) according to manufacturer’s instructions. The presence of correct canine CAR3 was verified by sequence analysis. CYP2B6 luciferase reporter vector containing the XREM-PBREM promoter and enhancer was obtained from Dr. Omiecinski (Penn State University) and has been described previously. To generate rat CAR3, a plasmid containing reference CAR (CAR1) underwent mutagenesis as described above using 5’- […] -3’ as the forward primer and 5’- […] -3’ as the reverse primer. […] Firefly luciferase reporter construct harboring CYP3A4 proximal and distal enhancer regions has been described earlier.
HepG2 cells were seeded in 10-cm cell culture dishes and incubated until 60–70% confluency (about 5 days). For transfections, dishes were rinsed with phosphate buffered saline (PBS) and cells incubated for 1–4 h in OptiMEM (Life Technologies). LipofectAMINE 2000 (Life Technologies) was used at a 2:1 ratio (μl of transfection reagent to μg of DNA). For transfections involving canine and rat CAR3, 24 μg of total DNA was used (9 μg of luciferase reporter construct, 7.5 μg of either empty expression vector or CAR expression construct and 7.5 μg of the hRXRα construct). For transfections with the canine PXR, 21 μg of total DNA was employed (12 μg of luciferase reporter containing CYP3A4 proximal and distal enhancers and 9 μg of either empty expression vector or plasmid containing canine PXR). Transfected HepG2 cells were incubated at 37°C, 5% CO2 for 19–24 h. […]
as §2, §5

canine PXR = assay: Canine PXR transactivation assay (HepG2 transiently transfected, CYP3A4 luciferase reporter); conditions: 48 h
Experimental: To generate canine PXR (Accession number: XM_535750.3) with a start codon replicating that of human PXR (Accession number: AY091855), a Canis lupus familiaris liver cDNA was employed as the template. PCR conditions were 98°C for 2 min, 35 cycles of 98°C for 1 min, 59°C for 1 min and 72°C for 1 min 45 sec, followed by 72°C for 7 min and cooling to 4°C.
HepG2 cells were seeded in 10-cm cell culture dishes and incubated until 60–70% confluency (about 5 days). For transfections, dishes were rinsed with phosphate buffered saline (PBS) and cells incubated for 1–4 h in OptiMEM (Life Technologies). LipofectAMINE 2000 (Life Technologies) was used at a 2:1 ratio (μl of transfection reagent to μg of DNA). For transfections involving canine and rat CAR3, 24 μg of total DNA was used (9 μg of luciferase reporter construct, 7.5 μg of either empty expression vector or CAR expression construct and 7.5 μg of the hRXRα construct). For transfections with the canine PXR, 21 μg of total DNA was employed (12 μg of luciferase reporter containing CYP3A4 proximal and distal enhancers and 9 μg of either empty expression vector or plasmid containing canine PXR). Transfected HepG2 cells were incubated at 37°C, 5% CO2 for 19–24 h. The cells were then trypsinized with TrypLE Express solution (Life Technologies) and either frozen in the presence of 10% DMSO for future use or seeded into clear bottom 96-well assay plate at a density of 5x10^4 cells/well and incubated at 37°C, 5% CO2 for 24 h.
as §1, §2, §3

[3] = 10 μM, above DMSO treated cells, mean ± SE
[4] = 100 μM, above DMSO treated cells, mean ± SE
[5] = panel of 19 compounds, concentration not given

Sequence of canine CAR3 (B6E443 entry or part of it INS263APYLT, one chain of several): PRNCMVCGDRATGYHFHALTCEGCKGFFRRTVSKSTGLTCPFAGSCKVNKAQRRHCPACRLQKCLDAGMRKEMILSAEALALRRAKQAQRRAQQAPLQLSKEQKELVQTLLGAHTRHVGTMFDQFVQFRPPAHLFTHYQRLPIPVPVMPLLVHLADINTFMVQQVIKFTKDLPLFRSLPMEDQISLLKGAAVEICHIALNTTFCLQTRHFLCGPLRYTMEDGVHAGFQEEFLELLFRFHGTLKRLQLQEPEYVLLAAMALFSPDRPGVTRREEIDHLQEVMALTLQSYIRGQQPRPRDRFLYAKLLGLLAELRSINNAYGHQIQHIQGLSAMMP

SMILES: O=C1Nc2ccc(Cl)cc2[C@@](C#CC2CC2)(C(F)(F)F)O1 [Efavirenz, efavirenz]
- Rat PXR Fold Activation (rat PXR; rat, 10 μM): 7.5 ± 2.3 fold
- Rat CAR3 Fold Activation, CYP2B6 promoter and enhancer (rat CAR3 [1]): 3.9 ± 0.6 fold
- Rat CAR3 Fold Activation, CYP3A4 promoter and enhancer (rat CAR3 [2]): 7.4 ± 3.3 fold

SMILES: Clc1cnc(Oc2ccc(Oc3ncc(Cl)cc3Cl)cc2)c(Cl)c1 [TCPOBOP, 1,4-Bis-[2-(3,5-dichloropyridyloxy)]benzene, 3,3′,5,5′-Tetrachloro-1,4-bis(pyridyloxy)benzene]
- Rat PXR Fold Activation (rat PXR; [3]): failed to elicit significant activation

SMILES: O=c1cc(-c2ccccc2)oc2c1ccc1ccccc12 [ANF, α-naphthoflavone]
- Rat CAR3 Fold Activation, CYP2B6 promoter and enhancer (rat CAR3 [1]): 3.4 ± 0.8 fold and 3.4 ± 0.8^c fold
- Rat CAR3 Fold Activation, CYP3A4 promoter and enhancer (rat CAR3 [2]): negligible effect

SMILES: CCCCC(CC)COC(=O)c1ccccc1C(=O)OCC(CC)CCCC (stereo not shown) [DEHP, bis (2-ethylhexyl) phthalate]
- Canine CAR3 Fold Activation, CYP2B6 promoter and enhancer (canine CAR3): 4.3 ± 0.8 fold and 4.3 ± 0.8^c fold
- Canine CAR3 Fold Activation, CYP3A4 promoter and enhancer (canine CAR3): significant activation only when the CYP2B6 promoter was used
- Rat PXR Fold Activation (rat PXR; [3]): -

SMILES: COc1ccc2[nH]c([S+]([O-])Cc3ncc(C)c(OC)c3C)nc2c1 (stereo not shown) [Omeprazole, omeprazole]
- Canine PXR Fold Activation (canine PXR; [4]): 9.6 ± 1.3 fold
- Rat PXR Fold Activation (rat PXR; rat, 100 μM): 9.8 ± 0.9 fold

SMILES: O=C1NC(=O)C(c2ccccc2)(c2ccccc2)N1 [phenytoin]
- Canine PXR Fold Activation (canine PXR; [5]): failed to elicit a significant activation
- Rat PXR Fold Activation (rat PXR; [4]): failed to elicit significant activation
- Rat PXR activation (rat PXR; [5]): failed to elicit a significant activation

SMILES: C=C[C@@]1(C)CC(=O)[C@]2(O)[C@@]3(C)[C@@H](O)CCC(C)(C)[C@@H]3[C@H](O)[C@H](OC(C)=O)[C@@]2(C)O1 [Forskolin, forskolin]
- Canine PXR Fold Activation (canine PXR; [3]): 5.6 ± 1.4 fold
- Rat PXR Fold Activation (rat PXR; rat, 10 μM): 5.8 ± 0.5 fold

SMILES: Clc1ccc(-c2nc3sccn3c2C=NOCc2ccc(Cl)c(Cl)c2)cc1 [CITCO, 6-(4-Chlorophenyl)imidazo[2,1-b][1,3]thiazole-5-carbaldehyde O-(3,4-dichlorobenzyl)oxime]
- Canine PXR Fold Activation (canine PXR; [3]): 5.4 ± 2.1 fold

SMILES: CC(=O)[C@H]1[C@H](C#N)C[C@H]2[C@@H]3CC=C4C[C@@H](O)CC[C@]4(C)[C@H]3CC[C@@]21C [Pregnenolone 16α carbonitrile, pregnenolone-16 α -carbonitrile]
- Emax, rat PXR activation (rat PXR; dose-response curve, above 0.1% DMSO): 11.4 fold
- EC50 (rat PXR; read-out: EC50, rat PXR activation, dose-response curve, nonlinear regression): 140 nM

SMILES: CCOP(=O)(OCC)C(=Cc1cc(C(C)(C)C)c(O)c(C(C)(C)C)c1)P(=O)(OCC)OCC [SR12813, tetraethyl 2-(3,5-di-tert-butyl-4-hydroxyphenyl)ethenyl-1,1-bisphosphonate]
- Canine PXR Fold Activation (canine PXR; [3]): 60.1 ± 3.1 fold
- Emax, canine PXR activation (canine PXR; dose-response 0.1 to 30 μM, above 0.1% DMSO): 60.3 ± 5.5 fold and 60.3 fold
- EC50 (canine PXR; read-out: EC50, canine PXR activation, dose-response 0.1 to 30 μM, nonlinear regression): 1900 ± 200 nM
- Canine CAR3 Fold Activation, CYP2B6 promoter and enhancer (canine CAR3): activation only in the presence of the CYP3A4 promoter
- Canine CAR3 Fold Activation, CYP3A4 promoter and enhancer (canine CAR3): 3.1 ± 0.7 fold and 3.1 ± 0.7^d fold
- Rat PXR Fold Activation (rat PXR; [3]): 6.1 ± 0.6 fold

SMILES: CCC1(c2ccccc2)C(=O)NC(=O)NC1=O [Phenobarbital, phenobarbital sodium salt]
- Canine PXR Fold Activation (canine PXR; [5]): failed to elicit a significant activation
- Rat PXR activation (rat PXR; 1 mM, vehicle water): failed to elicit significant activation
- Rat PXR activation (rat PXR; [5]): failed to elicit a significant activation
